Like-named read-outs stand apart in the source and are kept apart here.
Experiments:
[1] = system: human colic adenocarcinoma cell line HT29
Protocol: (§1) HT29 cells were cultivated in Dulbecco's MEM supplemented with 10% fetal calf serum (FCS). Cells from log-phase culture were seeded in 24-microwell plates (1 mL-5×10^4 cells/well) and kept at 37° C. in a water-jacketed incubator for 2 days under an air/CO2 atmosphere (5% CO2). Tested compounds, in DMSO solution, were added under the minimum volume (5 μL) to reach a concentration ranging from 0.1 to 10 μg/mL. Controls cells received 5 μL of DMSO free of dye. Plates were incubated 24 h, then medium was removed and the cells were washed twice with phosphate buffered saline (PBS) before addition of fresh medium free of drug and irradiation with visible light using a home made “light box” giving a fluence of 3.8 mW/cm^2 on the whole visible spectrum. Irradiation with red light was carried out using the same device fitted with an orange filter (0% T at 520 nm and 80% T at 590 nm) leading to a fluence of 2 mW/cm^2.
(§2) Plates were reincubated for 3 days before evaluation of the cell survival using the MTT assay (T. Mosmann, “Rapid calorimetric assay for cellular growth and survival. Application to proliferation assays”. J. Immunol. Methods 65,55-63,1983) using 30 min incubation with 100 μg well of 3-[4,5-dimethylthiazol-2-yl]-2,5-diphenyl tetrazolium bromide (MTT, Sigma). After removal of the medium, formazan crystals were taken up with 100 μL of DMSO and absorbance at 540 ni was measured with a Bio-Rad microplate reader (model 450); survival was expressed as % of untreated controls.

[2] = system: RBY-79 (indifferently named Y-79) cells; assay: RBY-79 (Y79) cell cytotoxicity / photocytotoxicity
Description: Columns HT29 and Y79 (═RBY79), without light, correspond to the cytotoxic activity.

[3] = system: human colic adenocarcinoma cell line HT29; assay: HT29 cell survival (MTT assay) after 24 h incubation, with or without light irradiation
Protocol: as §1, §2

Question: With “5, 10, 15-tri(meta-hydroxyphenyl)-20-phenyl)-2,3-chlorin and 5,10,15-tri(3-hydroxyphenyl)-7,8-chlorin [Compound 77-78]” as the substance, how does the “cytotoxic for HT29 (in words)” value [1] read?
Answer: cytotoxic

Question: What about the IC50 ([2]; read-out: Y79 IC50 (μM) With 2J/cm^2, irradiation with filter (0% T at 520 nm, 80% T at 590 nm), 3.5 mW/cm^2, 10 min) of the same substance?
Answer: 0.6 ± 0.1 µM

Question: What about the IC50 ([2]; read-out: Y79 IC50 (μM) without light, without light (cytotoxic activity)) of the same substance?
Answer: > 10 µM

Question: What about the IC50 ([3]; read-out: HT 29 IC50 (μM) with 2J/cm^2, irradiation with filter (0% T at 520 nm, 80% T at 590 nm), 3.5 mW/cm^2, 10 min) of the same substance?
Answer: 1.5 ± 0.07 µM

Question: What about the IC50 ([3]; read-out: HT 29 IC50 (μM) without light, without light (cytotoxic activity)) of the same substance?
Answer: 6.6 ± 0.9 µM
